The supplement of paper PMC10307832

How the values were obtained:
Test in all cases: relative viability (nuclei count vs DMSO), 5 days (fraction); higher = more cells survive
[1] = system: SW 1573
Summary of the method: (§1)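 Lung cancer cell lines, seeded in 1536-well plates, were treated the following day by pin tool with a single drug or with five library-drug doses (not always all listed) in √10 steps on top of a fixed anchor-drug dose. Cells were fixed and nuclei stained in one step after 5 days, and nuclei were counted. Relative viability is the nuclei count for treated wells divided by that for vehicle wells, reported as medians of duplicate plates.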

[2] = system: COR-L23
Summary of the method: as §1

[3] = system: NCI-H3122
Summary of the method: as §1

[4] = system: LK-2
Summary of the method: as §1

[5] = system: NCI-H2170
Summary of the method: as §1

[6] = system: NCI-H1993
Summary of the method: as §1

[7] = system: NCI-H2009
Summary of the method: as §1

[8] = system: NCI-H596
Summary of the method: as §1

[9] = system: NCI-H727
Summary of the method: as §1

[10] = system: HARA
Summary of the method: as §1

[11] = system: A-427
Summary of the method: as §1

[12] = system: EMC-BAC-2
Summary of the method: as §1

[13] = system: SK-MES-1
Summary of the method: as §1

[14] = system: NCI-H2228
Summary of the method: as §1

[15] = system: NCI-H1792
Summary of the method: as §1

[16] = system: NCI-H1944
Summary of the method: as §1

[17] = system: HOP-62
Summary of the method: as §1

[18] = system: SK-LU-1
Summary of the method: as §1

[19] = system: NCI-H1793
Summary of the method: as §1

[20] = system: PC-3 [JPC-3]
Summary of the method: as §1

[21] = system: LXF-289
Summary of the method: as §1

## NC(=O)Nc1cc(-c2cccc(F)c2)sc1C(=O)N[C@H]1CCCNC1 [AZD7762] + CC1(C)CCC(c2ccc(Cl)cc2)=C(CN2CCN(c3ccc(C(=O)NS(=O)(=O)c4ccc(N[C@H](CCN5CCOCC5)CSc5ccccc5)c(S(=O)(=O)C(F)(F)F)c4)cc3)CC2)C1 [Navitoclax] (partner 0.5 µM)
[1]; first compound 0.01 µM
  relative viability: 1.19
[1]; first compound 0.03162 µM
  relative viability: 1.12
[1]; first compound 0.1 µM
  relative viability: 1.21
[1]; first compound 0.3162 µM
  relative viability: 0.764
[1]; first compound 1 µM
  relative viability: 0.887
[2]; first compound 0.01 µM
  relative viability: 1.28
[2]; first compound 0.03162 µM
  relative viability: 1.01
[2]; first compound 0.1 µM
  relative viability: 1.01
[2]; first compound 0.3162 µM
  relative viability: 0.891
[2]; first compound 1 µM
  relative viability: 0.194
[3]; first compound 0.01 µM
  relative viability: 0.97
[3]; first compound 0.03162 µM
  relative viability: 1.03
[3]; first compound 0.1 µM
  relative viability: 1.01
[3]; first compound 0.3162 µM
  relative viability: 0.995
[3]; first compound 1 µM
  relative viability: 1.05
[4]; first compound 0.01 µM
  relative viability: 0.849
[4]; first compound 0.03162 µM
  relative viability: 0.822
[4]; first compound 0.1 µM
  relative viability: 0.838
[4]; first compound 0.3162 µM
  relative viability: 0.756
[4]; first compound 1 µM
  relative viability: 0.607
[5]; first compound 0.01 µM
  relative viability: 0.62
[5]; first compound 0.03162 µM
  relative viability: 0.702
[5]; first compound 0.1 µM
  relative viability: 0.577
[5]; first compound 0.3162 µM
  relative viability: 0.653
[5]; first compound 1 µM
  relative viability: 0.584
[6]; first compound 0.01 µM
  relative viability: 0.943
[6]; first compound 0.03162 µM
  relative viability: 1.04
[6]; first compound 0.1 µM
  relative viability: 0.846
[6]; first compound 0.3162 µM
  relative viability: 0.983
[6]; first compound 1 µM
  relative viability: 0.823
[7]; first compound 0.01 µM
  relative viability: 1.27
[7]; first compound 0.03162 µM
  relative viability: 1.19
[7]; first compound 0.1 µM
  relative viability: 1.25
[7]; first compound 0.3162 µM
  relative viability: 1.13
[7]; first compound 1 µM
  relative viability: 1.08
[8]; first compound 0.01 µM
  relative viability: 1.14
[8]; first compound 0.03162 µM
  relative viability: 0.936
[8]; first compound 0.1 µM
  relative viability: 1.06
[8]; first compound 0.3162 µM
  relative viability: 0.912
[8]; first compound 1 µM
  relative viability: 0.698
[9]; first compound 0.01 µM
  relative viability: 0.456
[9]; first compound 0.03162 µM
  relative viability: 0.54
[9]; first compound 0.1 µM
  relative viability: 0.397
[9]; first compound 0.3162 µM
  relative viability: 0.318
[9]; first compound 1 µM
  relative viability: 0.111
[10]; first compound 0.01 µM
  relative viability: 1.12
[10]; first compound 0.03162 µM
  relative viability: 1.15
[10]; first compound 0.1 µM
  relative viability: 1.2
[10]; first compound 0.3162 µM
  relative viability: 1.12
[10]; first compound 1 µM
  relative viability: 0.801
[11]; first compound 0.01 µM
  relative viability: 0.951
[11]; first compound 0.03162 µM
  relative viability: 0.948
[11]; first compound 0.1 µM
  relative viability: 1.08
[11]; first compound 0.3162 µM
  relative viability: 1.04
[11]; first compound 1 µM
  relative viability: 0.36
[12]; first compound 0.01 µM
  relative viability: 1.22
[12]; first compound 0.03162 µM
  relative viability: 1.11
[12]; first compound 0.1 µM
  relative viability: 1.16
[12]; first compound 0.3162 µM
  relative viability: 1.18
[12]; first compound 1 µM
  relative viability: 1.18
[13]; first compound 0.01 µM
  relative viability: 1.24
[13]; first compound 0.03162 µM
  relative viability: 1.38
[13]; first compound 0.1 µM
  relative viability: 1.41
[13]; first compound 0.3162 µM
  relative viability: 1.28
[13]; first compound 1 µM
  relative viability: 0.645
[14]; first compound 0.01 µM
  relative viability: 1
[14]; first compound 0.03162 µM
  relative viability: 0.552
[14]; first compound 0.1 µM
  relative viability: 1
[14]; first compound 0.3162 µM
  relative viability: 0.666
[14]; first compound 1 µM
  relative viability: 0.354
[15]; first compound 0.01 µM
  relative viability: 0.677
[15]; first compound 0.03162 µM
  relative viability: 0.686
[15]; first compound 0.1 µM
  relative viability: 0.692
[15]; first compound 0.3162 µM
  relative viability: 0.565
[15]; first compound 1 µM
  relative viability: 0.72
[16]; first compound 0.01 µM
  relative viability: 1.06
[16]; first compound 0.03162 µM
  relative viability: 1.14
[16]; first compound 0.1 µM
  relative viability: 1.1
[16]; first compound 0.3162 µM
  relative viability: 1.12
[16]; first compound 1 µM
  relative viability: 0.816
[17]; first compound 0.01 µM
  relative viability: 1.2
[17]; first compound 0.03162 µM
  relative viability: 1.03
[17]; first compound 0.1 µM
  relative viability: 1.19
[17]; first compound 0.3162 µM
  relative viability: 1.16
[17]; first compound 1 µM
  relative viability: 0.969
[18]; first compound 0.01 µM
  relative viability: 0.895
[18]; first compound 0.03162 µM
  relative viability: 0.649
[18]; first compound 0.1 µM
  relative viability: 0.251
[18]; first compound 0.3162 µM
  relative viability: 0.103
[18]; first compound 1 µM
  relative viability: 0.138
[19]; first compound 0.01 µM
  relative viability: 0.437
[19]; first compound 0.03162 µM
  relative viability: 0.645
[19]; first compound 0.1 µM
  relative viability: 0.476
[19]; first compound 0.3162 µM
  relative viability: 0.368
[19]; first compound 1 µM
  relative viability: 0.211
[20]; first compound 0.01 µM
  relative viability: 0.776
[20]; first compound 0.03162 µM
  relative viability: 0.824
[20]; first compound 0.1 µM
  relative viability: 0.802
[20]; first compound 0.3162 µM
  relative viability: 0.847
[20]; first compound 1 µM
  relative viability: 0.823
[21]; first compound 0.01 µM
  relative viability: 0.943
[21]; first compound 0.03162 µM
  relative viability: 0.962
[21]; first compound 0.1 µM
  relative viability: 0.949
[21]; first compound 0.3162 µM
  relative viability: 1
[21]; first compound 1 µM
  relative viability: 1.03
